According to ChEMBL document CHEMBL3507680, “University of Dundee, Gates Library screen for HepG2 cell viability”:

Test: Human HepG2 cell viability assay in 384 well format
Format: toxicity, cell-based
Set-up: dose 125 nL, time 70.5 hour; concentration not given beside the values
Conditions: HepG2 cells, read-out: Inhibition

Structure (SMILES) | cytotoxicity at 70.5 h [%]
c1ccc(-c2nc(CN3CCCC(Cn4cncn4)C3)co2)cc1 (stereo not given) | 17.2
CN1CCN(Cc2cn3c(n2)CN(Cc2ccc(F)cc2)CC3)CC1 | -9.1
CCCN(Cc1cccnc1)C(=O)C1CCS(=O)(=O)CC1 | 6.55
COCC(=O)NC(C)Cc1cccc(Cl)c1 (stereo not given) | 5.75
COc1cccc(CN2CCCCCC2c2cccs2)c1O (stereo not given) | -6.94
CCc1nc(C2CCCN2CCCS(=O)(=O)c2ccccc2)no1 (stereo not given) | -7.66
Cn1cc(CN2CCN(CC3(c4ccccc4)CC3)CC2)cn1 | -11.2
Cc1cc(C)n2nc(C(=O)N[C@H]3C[C@H]4CN(C)CCN4C3)cc2n1 | -6.02
Cc1nn(C)c(C)c1CN(Cc1cccn1-c1ncccn1)C(C)C | 3.54
CSCC(CCO)NC(=O)Nc1cccc(Br)c1 (stereo not given) | -0.357
CCc1cc(O)n2nc(C3CCCN3C(=O)c3ccccn3)cc2n1 (stereo not given) | 17
O=C(NCC1CC1)C1CCC2(CCNCC2)C1 (stereo not given) | -2.15
Cc1ccc(S(=O)(=O)Cc2nnc(C)n2C)cc1 | -2.49
COc1cc(OC)cc(-c2noc(C(N)CCSC)n2)c1 (stereo not given) | -2.69
CS(=O)(=O)NC1CCCN(C(=O)NCc2ccoc2)C1 (stereo not given) | 0.0228
CS(=O)(=O)N1C[C@@H]2CC[C@H](C1)N(CCC(=O)NCc1ccccc1F)C2 | 21.2
COCC1CCCCN1C(=O)c1cc(Cn2ccc3ccccc32)[nH]n1 (stereo not given) | -2.47
N#Cc1cccc(S(=O)(=O)N2CCCCC2CCN2CCCC2=O)c1 (stereo not given) | -2.56
CC1(C)CN=C(N2CCN(CC3CCCCO3)CC2)S1 (stereo not given) | 0.00251
CC(C)CC(NC(=O)CN(C)C(=O)c1ccco1)c1cccs1 (stereo not given) | -9.94
COc1ccc(C[C@H]2CN(c3nnc(C)s3)CC[C@@H]2OC)cc1 | -0.42
Cc1nc(C(C)C)sc1C(=O)N(C)CCCc1cnn(C)c1 | -7.28
CC(C)c1noc(CN2CCN(C(=O)c3cccnc3O)CC2)n1 | -3.73

Structure (SMILES) | cytotoxicity at 70.5 h [%]
Fc1cccc(Cl)c1CNCCCOc1ccccn1 | -3.63
O=C(c1ccnn1-c1ccc2ccccn12)N1CCOCC1 | -3.59
CCCC(=O)N1CCN(Cc2cc(-c3ccncc3)nn2C)CC1 | 0.205
CCOC(=O)N1CCN(C(=O)c2sc(-c3ccccc3F)nc2C)CC1 | -11.8
Cc1ccc(C(=O)NCCCN(C)S(C)(=O)=O)c(=O)[nH]1 | -5.2
Cc1nn(C)c(C)c1CNC(=O)CCn1ncc2c(Cl)cccc21 | -1.2
CC(=O)N1CCCC1C(=O)NCCOc1cccc(F)c1 (stereo not given) | -12.8
O=C(O)[C@@H]1CN(C2CCOCC2)C[C@H]1C1CC1 | -7.25
CCc1cc(NCCCNS(C)(=O)=O)nc(-c2ccccn2)n1 | -7.43
CC(C)c1nc2n(n1)CC(NCc1ccncc1)CC2 (stereo not given) | -16.7
Cc1nc(-c2ccco2)ccc1C(=O)NCCN1CCN(C)CC1 | -114
COc1c(Br)cc(Cl)cc1NCc1c(C)noc1C | 11.5
CN(C)c1ncnc2c1CCN(CC1CCOCC1)CC2 | -15
Cc1cc(C(=O)N2CC[C@@H]3CN(CCC(C)C)S(=O)(=O)[C@@H]3CC2)no1 | -2.89
O=C(O)C1(Cc2cccc(-c3ccc(F)c(F)c3)c2)CCOCC1 | -19.2
COC(=O)Cn1c(C)cc(=O)c2cc(F)ccc21 | -4.13
Cc1nn(C)c2c(NCCCn3cccn3)nc(C(C)C)nc12 | 16.2
Cc1nnc(CN2CCCC2c2ccc3c(c2)OCCO3)n1C (stereo not given) | -3.49
CCS(=O)(=O)N1CCCC2(CCCN2Cc2cccc(Cl)c2)C1 (stereo not given) | -4.53
CC(C)CCS(=O)(=O)CC(=O)N1CCCC1c1cnn(C)c1 (stereo not given) | -5.18
CCN(CC)S(=O)(=O)c1ccc(OC)c(NC(=O)CSC)c1 | 12.2
O=C(c1ccsc1)N1CCC2(CCN(Cc3ccccn3)C2=O)C1 (stereo not given) | 2.48
Cc1ccc(OCCCNC(=O)Cc2nc3ncccn3n2)cc1 | -13.7

Structure (SMILES) | cytotoxicity at 70.5 h [%]
OCC(O)CSCc1nnc(-c2cccc(F)c2)o1 (stereo not given) | -14.7
CC(=O)N1CC[C@@H](N2CCN(C)CC2)[C@@H]1Cc1ccccc1 | -2.96
CN1C[C@@H]2COC[C@]2(C(=O)NCCc2cccs2)C1 | -5.55
CC(=O)N1CCC2(CCN(C(=O)c3ccc(C)c(C(F)(F)F)c3)CC2)C1 | 37.6
CN1CC2(CCN(C(=O)Cc3ccccn3)CC2)OCC1=O | -5.16
Cc1nc(CNC(C(=O)N2CCOCC2)C(C)C)oc1C (stereo not given) | -5.87
CN(Cc1nnc2n1CCC2)C(=O)c1ccc2c(c1)CCO2 | -3.65
CN1CCN(C2CCN(C(C(N)=O)c3ccccc3)CC2)C1=O (stereo not given) | -5.22
CC(C)c1nn(C)c(N2CCOCC2)c1CNC(C)c1ccco1 (stereo not given) | -2.73
Cc1cc(C)c(CNC(=O)N2CCCC2c2cc(C)on2)c(=O)[nH]1 (stereo not given) | -7.12
Cc1cccc(C2(O)CCN(Cc3ccccc3N3CCCC3)CC2)c1 | 16.9
Cc1cc(NC(=O)NCCc2cccnc2)n(C)n1 | -3.88
CC(=O)N(Cc1noc(C2CC2)n1)C1CCN(Cc2cc(C)on2)C1 (stereo not given) | -3.51
COCc1nc(C2CCN(Cc3ncc[nH]3)CC2)no1 | 6.2
CCC(C)c1csc(NC(=O)Cc2csc(-c3nnc[nH]3)n2)n1 (stereo not given) | 9.25
COc1ccc(NC(C)=O)cc1S(=O)(=O)Nc1ccon1 | -5.66
COCc1nc(C(=O)N2CCN(Cc3ccsc3)CC2)cs1 | -0.448
c1cncc(CN2CC[C@@H]3O[C@H](COCCN4CCCC4)CC[C@@H]32)c1 | 5.3
Cc1nc(COCc2cnc3n2CCN(CC2CCC2)C3C)cs1 (stereo not given) | -5.9
O=C(NCCCO)C1(CC2CC(c3ccc(F)cc3)=NO2)CCOCC1 (stereo not given) | -5.38
CCN(CC(O)c1ccc(C)cc1)C(=O)NC(C)C (stereo not given) | -1.93
Cc1cc(NC(=O)NCc2ccncc2)ccc1OC(C)C | -3.47
CC(C)(O)CCc1cccc(C(=O)N[C@H](C(N)=O)c2ccccc2)c1 | -11

Structure (SMILES) | cytotoxicity at 70.5 h [%]
c1ncc(Nc2nccc(C3CCCCN3CC3CCCCC3)n2)cn1 (stereo not given) | -2.27
CCc1nc(C2CCCN2CC(=O)Nc2cc(C)nn2C)no1 (stereo not given) | -15.1
O=C(CCCc1cccs1)N1CCC(N2CCNC2=O)CC1 | 22.1
Cc1cc(C(F)(F)F)nc(CNC(=O)C2CCCCCN2C)n1 (stereo not given) | 2.11
O=c1ncn(-c2ccccc2F)c2ncccc12 | -5.32
Cc1nc(NCCCn2cccn2)c2c(n1)c(C)nn2C | -3.99
O=C1NCC2(CCCN(C(=O)c3c[nH]nc3-c3cccs3)C2)O1 (stereo not given) | -8.3
CCOCc1cnc2n1CCN(C(=O)Cc1ccccn1)C2C (stereo not given) | -5.89
CCS(=O)(=O)N1CC[C@@H]2[C@H](COCC3CC3)CN(C)C(=O)[C@@H]2CC1 | -5.95
COc1ccc(F)c(F)c1C(=O)N1C[C@@H](CN(C)CCO)[C@@H](CO)C1 | 17
O=C(C1CCC1)N1CCC(C2CCN(Cc3ccc(Cl)cc3)C2)CC1 (stereo not given) | -3.08
Cc1cc(CN2CCOC(C)(C(=O)N3CCOCC3)C2)no1 (stereo not given) | -2.61
CC(NCc1cnc(C2CCC2)s1)c1cccc(-n2ccnc2)c1 (stereo not given) | -5.22
CCNC(=O)[C@@H]1C[C@@H](N)CN1Cc1ccc(Sc2ccc(C)cc2)o1 | -4.77
COc1ccc(CN2C[C@@H](F)[C@@H](OCc3nc4cnccc4[nH]3)C2)cn1 | -4.62
CC(C)c1noc(CCNC(=O)NCC2COc3ccccc3O2)n1 (stereo not given) | -11.6
CC(C)Nc1nc(N2CCCC2)nc2c1CN(c1ncc(F)cn1)CC2 | -7.8
CCOc1cc(C)nc(N2CCN(C(=O)CN(C)C3CC3)CC2)n1 | -9.22
Cc1cc(CNC(=O)N(Cc2ccc(F)cc2F)C2CC2)no1 | 15.5
Cc1nc(C)c(CC(=O)NCc2ccc(F)cc2)s1 | -11.4
O=C(NCC1CC1)C1=NOC2(CCN(Cc3ccc4c(c3)OCO4)C2)C1 (stereo not given) | -5.94
Cc1cnn(CC2CN(Cc3nccn3C)CCO2)c1 (stereo not given) | -10.6
COCCN1CCO[C@@H]2CN(S(=O)(=O)c3cccnc3)C[C@@H]2C1 | 3.84

Structure (SMILES) | cytotoxicity at 70.5 h [%]
N#Cc1cccnc1N1CCN(C(=O)CCC(=O)c2cccs2)CC1 | 14.6
CN(Cc1ccccc1F)C(=O)c1ccoc1 | -4.97
O=C1CC(c2cccnc2)C2(CCN(S(=O)(=O)C3CC3)CC2)N1 (stereo not given) | -3.38
Cc1cnn(CC2CN(CC(=O)Nc3nnc(C)s3)CCO2)c1 (stereo not given) | -9.05
Cc1noc(CNc2cc3c(cc2Cl)OCCCO3)n1 | -14.8
O=C(N1CCCC1)N1CCC[C@]2(C[C@@H](OCc3ccncc3)CO2)C1 | -10.6
CNC(=O)CN1CCCC12CCN(C(=O)c1ccc(F)cc1)CC2 | -11
Cc1cnn(CC2CCCN2c2ncnc3sccc23)c1 (stereo not given) | 1.15
CCC(C)(NCc1nnc(C(C)(C)C)o1)c1nccs1 (stereo not given) | -0.157
CC(C(=O)NCCOc1cccc(Cl)c1)n1cncn1 (stereo not given) | -9.41
Cc1nn(CCN2CCSCC2)cc1CNCC1CC1 | -14.6
O=C(c1cnco1)N1CCC(Cc2ccc3ncccc3c2)CC1 | 5.02
Cc1cc(CNC(=O)CCCN2CCCCC2)n(C)n1 | 12.2
CC(NC(=O)c1cc(Br)c2c(c1)OCCO2)C(N)=O (stereo not given) | 16.6
Cc1nn(C)c(Cl)c1C1CCCN1c1ncnc2sccc12 (stereo not given) | -1.91
CCOc1ccccc1C(=O)N(C)C(C)c1ccc(S(C)(=O)=O)cc1 (stereo not given) | -6.38
Cc1cc(C)c2[nH]c(C(=O)NCCN3CCNC3=O)c(C)c2c1 | -5.43
COCC(=O)N1CCN(C(=O)C2CCCCC2)[C@@H](C(=O)OC)C1 | 1.64
CC(=O)CSc1sc2c(O)cc(=O)[nH]c2c1C(N)=O | -12.7
O=C(c1cccc2c1OCO2)N1CCC(N2CCCC2)CC1 | -1.7
CCCc1nnc(NC(=O)NC2CCOc3ccccc32)s1 (stereo not given) | -4.65
CCOCCNC(=O)Nc1cccc(-c2nccn2C)c1 | -10
Cc1ccc(CN2CCOCC2c2[nH]ncc2C)cn1 (stereo not given) | -7.81
